In patent US9242966B2, “Phthalazines as potassium ion channel inhibitors” (BRISTOL-MYERS SQUIBB COMPANY, priority 2013, dated 2016):

Columns and labels:
[1] = In vivo rat PK evaluation of pro-drug cleavage to parent; conditions: all doses administered PO, parent = Example 1
Description: (§1) Example 16 is a prodrug of Example 1.

[2] = Rat PO PK with pH modulators (Pentagastrin or Famotidine pre-treatment); type: in vivo
Description: as §1

human KV 1.5 = biological target: T1, human KV 1.5 (Homo sapiens, UniProt P22460); test: Block of IKur current in patch clamped L-929 cells expressing human Kv1.5; type: cell-based; conditions: L929, 0.3 μM; patch clamped mammalian L-929 cells stably expressing human Kv1.5 (IKur); read-out: KV1_5% Inh L929 @0.3 μM
T1 construct: expressed in transfected cells; host or cells: mammalian L-929 cells (mouse fibroblast line)
T1 sequence (P22460 whole entry): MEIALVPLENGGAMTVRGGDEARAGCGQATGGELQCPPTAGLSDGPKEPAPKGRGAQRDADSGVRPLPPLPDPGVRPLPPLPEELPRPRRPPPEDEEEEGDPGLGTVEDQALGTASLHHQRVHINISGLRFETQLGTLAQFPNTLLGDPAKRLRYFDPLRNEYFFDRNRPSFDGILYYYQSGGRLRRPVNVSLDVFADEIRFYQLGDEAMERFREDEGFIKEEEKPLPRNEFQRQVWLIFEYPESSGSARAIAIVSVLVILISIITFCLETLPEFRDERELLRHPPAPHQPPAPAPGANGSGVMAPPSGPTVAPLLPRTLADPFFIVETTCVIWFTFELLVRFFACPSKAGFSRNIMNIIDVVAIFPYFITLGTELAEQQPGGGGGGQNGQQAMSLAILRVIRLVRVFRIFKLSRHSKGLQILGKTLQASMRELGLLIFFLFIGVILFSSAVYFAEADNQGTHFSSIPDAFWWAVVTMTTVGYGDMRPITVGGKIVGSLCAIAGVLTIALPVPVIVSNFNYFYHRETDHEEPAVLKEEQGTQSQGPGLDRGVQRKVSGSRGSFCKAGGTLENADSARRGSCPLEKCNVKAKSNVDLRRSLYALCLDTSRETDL
Description: 1. Synders, D. J.; et al., “A rapidly activating and slowly inactivating potassium channel cloned from human heart: functional analysis after stable mammalian cell culture expression”, J. Gen. Physiol., 101:513-543 (1993). […]

SMILES | Effect of pH modulators on PO PK (pH dependent absorption) [2] | inhibition at 0.3 µM (human KV 1.5) [%] | Pro-drug cleavage to the respective parent compound [1]
O=C(NCC(O)CO)c1cncc(-c2nnc(NCc3ccccn3)c3c(-c4ccccc4)cccc23)c1 (stereo not shown) [Example 6, N-(2,3-Dihydroxypropyl)-5-(5-phenyl-4-(pyridin-2-ylmethylamino)phthalazin-1-yl)nicotinamide] | – | 38.3 | –
CC(=O)Nc1cncc(-c2nnc(NCc3ccccn3)c3c(-c4ccccc4)cccc23)c1 [Example 11, N-(5-(5-Phenyl-4-(pyridin-2-ylmethylamino)phthalazin-1-yl)pyridin-3-yl)acetamide] | – | 78.8 | –
CC(C)(C)Oc1cc(-c2nnc(NCc3ccccc3)c3c(-c4ccccc4)cccc23)ccn1 [Example 13, N-Benzyl-4-(2-tert-butoxypyridin-4-yl)-8-phenylphthalazin-1-amine] | – | 43 | –
NS(=O)(=O)c1cncc(-c2nnc(NC[C@H](O)c3ccccc3)c3c(-c4ccccc4)cccc23)c1 [Example 41, (R)-5-(4-((2-Hydroxy-2-phenylethyl)amino)-5-phenylphthalazin-1-yl)pyridine-3-sulfonamide] | – | 93.5 | –
OCC(O)c1cncc(-c2nnc(NCc3ccccn3)c3c(-c4ccccc4)cccc23)c1 (racemic) [Example 7, 1-(5-(5-Phenyl-4-(pyridin-2-ylmethylamino)phthalazin-1-yl)pyridin-3-yl)ethane-1,2-diol] | – | 16 | –

Continued, in another order:

Effect of pH modulators on PO PK (pH dependent absorption) [2] | inhibition at 0.3 µM (human KV 1.5) [%] | SMILES | Pro-drug cleavage to the respective parent compound [1]
mitigated the pH dependent absorption | – | O=P(O)(O)NS(=O)(=O)c1cncc(-c2nnc(NCc3ccccn3)c3c(-c4ccccc4)cccc23)c1 [Example 16, 5-(5-Phenyl-4-(pyridin-2-ylmethylamino)phthalazin-1-yl)pyridin-3-ylsulfonylphosphoramidic acid] | Pro-drug cleavage to the respective parent compound was demonstrated
– | 92.8 | Nc1ccc(-c2nnc(NCc3ccccc3)c3c(-c4ccccc4)cccc23)cn1 [Example 20, 4-(6-Aminopyridin-3-yl)-N-benzyl-8-phenylphthalazin-1-amine] | –
– | 80.2 | Oc1cc(-c2nnc(NCc3ccccc3)c3c(-c4ccccc4)cccc23)ccn1 [Example 25, 4-(4-(Benzyl-amino)-5-phenylphthalazin-1-yl)pyridin-2-ol] | –
– | 71.1 | CC(C)OCCNC(=O)c1cncc(-c2nnc(NCc3ccccn3)c3c(-c4ccccc4)cccc23)c1 [Example 48, N-(2-Isopropoxyethyl)-5-(5-phenyl-4-((pyridin-2-ylmethyl)amino)phthalazin-1-yl)nicotinamide] | –
